Patent publication EP0374886A2, “Antiretroviral furan ketones” (MERRELL DOW PHARMACEUTICALS INC., priority 1988, dated 1990)
≈ marks a conversion by molar mass, not a printed value.

Columns and labels:
[1] = tested on: Moloney murine leukemia virus (MoLV); test: in vitro XC plaque assay (inhibition of virus plaque growth in mouse SC-1 cells / rat XC cells); assay type: cell-based; conditions: SC1, concentration giving a 50% inhibition of virus plaque growth, compounds added 2 hours prior to virus, read-out: IC₅₀
Description: The ability of the furan ketone derivatives of this invention to act as anti-retroviral agents can be demonstrated by their ability to inhibit the growth and replication of murine leukemia virus, an oncogenic retrovirus, as determined by an in vitro XC plaque assay. This assay was performed according to the method of Rowe et al. (Virology, 1970, 42, 1136-39) as previously described by L. Hsu, et al. (J. Virological Methods, 1980, 1, 167-77) and T. L. Bowlin and M. R. Proffitt (J. Interferon Res., 1983, 3(1), 19-31). Mouse SC-1 cells (fibroblast) (10⁵) were seeded into each well of 6-well cluster plates (Costar #3506) in 4 ml Minimum Essential Medium (MEM) with 10% Fetal Calf Serum (FCS). Following an 18 hour incubation period (37°C), Moloney murine leukemia virus (MoLV) was applied at a predetermined titer to give optimal (i.e. countable) numbers of virus plaques. Compounds were added 2 hours prior to addition of the virus. Three days later the culture medium was removed, the SC-1 cell monolayers were exposed to UV irradiation (1800 ergs), and rat XC cells (10⁶) were seeded into each well in 4 ml MEM. Following an additional 3 day incubation (37°C), these cells were fixed with ethyl alcohol (95%) and stained with 0.3% crystal violet. Plaques were then counted under low magnification. The antiviral activities of various compounds of this invention are tabulated in Table I in terms of the IC₅₀, i,e, the concentration giving a 50% inhibition of virus plaque growth.

[2] = tested on: HIV1GB8 strain of HIV-1; test: anti-HIV activity in T-cells (JM cells): syncytial cell count and p24 antigen after 4 days; assay type: cell-based; conditions: for SYNCYTIAL COUNT: untreated 29; for P24 ANTIGEN: untreated 801; for inhibition at 15 µg/mL / inhibition at 30 µg/mL: Human immunodeficiency virus 1, T-cell, 96 h, inhibition of syncytial count
Description: To further confirm the antiretroviral activity of these compounds, methyl 5-tetradecyloxy-2-furyl ketone and methyl 5-tetradecylthiomethyl-2-furyl ketone were evaluated for activity against HIV. Following overnight pretreatment of T-cells (JM cells) with the HIV1GB8 strain of HIV-1, the test compounds were added to the cell cultures at concentrations of 15 and 30 µg/ml. After 4 days the number of synctial cells in the cell culture and the amount of p24 antigen, also a measure of viral replication, were determined.

| SMILES | IC50 [1] [µg/mL] | further results |
| --- | --- | --- |
| CCCCCCCCCCCCCCSc1ccc(C(C)=O)o1 [Methyl 5-tetradecylthio-2-furyl ketone] | 1 to 10 (≈ 2.95 to 29.5 µM) | – |
| CCCCCCCCCCCCCCOCc1ccc(C(C)=O)o1 [Methyl 5-tetradecyloxymethyl-2-furyl ketone] | 1 to 10 (≈ 2.97 to 29.7 µM) | – |
| CC(=O)c1ccc(OCCC(C)CCCC(C)CCCC(C)C)o1 (centres unmarked) [Methyl 5-(3,7,11-trimethyldodecyloxy)-2-furyl ketone] | < 1 | – |
| CCCCCCCCCCCCCCSCc1ccc(C(C)=O)o1 [Methyl 5-tetradecylthiomethyl-2-furyl ketone] | 1 (≈ 2.84 µM) | SYNCYTIAL COUNT ([2]; 15 µg/ml): 3; P24 ANTIGEN ([2]; 15 µg/ml): 152 pg X 10³/ml; SYNCYTIAL COUNT ([2]; 30 µg/ml): 0; inhibition at 15 µg/mL ([2]; 15 µg/ml): 90%; inhibition at 30 µg/mL ([2]; 30 µg/ml): 100% |
| CCCCCCCCCCOc1ccc(C(C)=O)o1 [Methyl 5-decyloxy-2-furyl ketone] | 1 to 10 (≈ 3.75 to 37.5 µM) | – |
| CCCCCCCCCCCCc1ccc(C(C)=O)o1 [Methyl 5-dodecyl-2-furyl ketone] | 5 to 10 (≈ 18 to 35.9 µM) | – |
| CCCCCCCCCCCCCCc1ccc(C(C)=O)o1 [Methyl 5-tetradecyl-2-furyl ketone] | 1 to 10 (≈ 3.26 to 32.6 µM) | – |
| CCCCCCCCCCCCC(C)COc1ccc(C(C)=O)o1 (centres unmarked) [Methyl 5-(2-methyltetradecyloxy)-2-furyl ketone] | 1 to 5 (≈ 2.97 to 14.9 µM) | – |

More lines, main results first:

| IC50 [1] [µg/mL] | SMILES | further results |
| --- | --- | --- |
| > 10 | CCCCCCCCCCCCCCCCCCOc1ccc(C(C)=O)o1 [Methyl 5-octadecyloxy-2-furyl ketone] | – |
| 4 (≈ 12.4 µM) | CCCCCCCCCCCCCCOc1ccc(C(C)=O)o1 [Methyl 5-tetradecyloxy-2-furyl ketone] | SYNCYTIAL COUNT ([2]; 15 µg/ml): 19; P24 ANTIGEN ([2]; 15 µg/ml): 450 pg X 10³/ml; SYNCYTIAL COUNT ([2]; 30 µg/ml): 0; inhibition at 15 µg/mL ([2]; 15 µg/ml): 34%; inhibition at 30 µg/mL ([2]; 30 µg/ml): 100% |
| 1 to 10 (≈ 3.4 to 34 µM) | CCCCCCCCCCCCOc1ccc(C(C)=O)o1 [Methyl 5-dodecyloxy-2-furyl ketone] | – |
| 5 to 10 (≈ 14.9 to 29.7 µM) | CCCCCCCCCCCCCCCOc1ccc(C(C)=O)o1 [Methyl 5-pentadecyloxy-2-furyl ketone] | – |
| 1 to 10 (≈ 2.85 to 28.5 µM) | CCCCCCCCCCCCCCCCOc1ccc(C(C)=O)o1 [Methyl 5-hexadecyloxy-2-furyl ketone] | – |
| 5 to 10 (≈ 13.7 to 27.4 µM) | CCCCCCCCCCCCCCOc1ccc(C(=O)C(C)(C)C)o1 [t-Butyl 5-tetradecyloxy-2-furyl ketone] | – |
| < 1 | CCCCCCCC/C=C\CCCCCCCCOc1ccc(C(C)=O)o1 [Methyl 5-(cis-9-octadecenyl)oxy-2-furyl ketone] | – |
| 5 to 10 (≈ 12.7 to 25.5 µM) | CCCCCCCCCCCCCCOc1ccc(C(=O)CCCCCC)o1 [Hexyl 5-tetradecyloxy-2-furyl ketone] | – |
